From patent US8258115B2, “Stable salts of S-adenosylmethionine and process for the preparation thereof” (priority 2007, dated 2012)

What was measured:
Format in all cases: physicochemical
[1] = Stability test in thermostated heaters at 25° C. and 60% R.H., active ingredient %; details: heat-sealed aluminium/aluminium bags
Description: (§1) In the following Tables 2-13, the percentage values are repotted which were obtained in the stability tests carried out on the products of examples 1-6. The stability tests were carried out in thermostated heaters at 40° C. and 75% R.H (tables 2-7) as well as 25° C. and 60% R.H. (tables 8-13), preserving the samples in heat-sealed aluminium/aluminium bags according to the following criteria: the active ingredient % was determined for every sampling point taken under consideration.

[2] = Moisture % K.F. of the stability samples; details: sample used in the stability test
Description: as §1, with “the active ingredient % was determined for every sampling point taken under consideration.” left out

[3] = Degradation of the active stereoisomer S,S at 40° C. and 75% R.H.
Description: (§2) In the following Tables 14-25, the percentage values are reported of the degradation of the active stereoisomer S,S calculated at 40° C. and 75% R.H. (Tables 14-19) and at 25° C. and 65% R.H.

[4] = Stability test in thermostated heaters at 40° C. and 75% R.H., active ingredient %; details: heat-sealed aluminium/aluminium bags
Description: as §1

[5] = Degradation of the active stereoisomer S,S at 25° C. and 65% R.H.
Description: as §2

Compound	stability test percentage value (active ingredient %), 30 days [1]	stability test percentage value (active ingredient %), 90 days [1]	stability test percentage value (active ingredient %), 180 days [1]	stability test percentage value (active ingredient %), 360 days [1]	stability test percentage value (active ingredient %), 720 days [1]	Moisture % K.F. [2]	percentage of active S,S stereoisomer remaining ([3]; 30 days)	percentage of active S,S stereoisomer remaining ([3]; 60 days)	percentage of active S,S stereoisomer remaining ([3]; 90 days)	percentage of active S,S stereoisomer remaining ([3]; 120 days)	percentage of active S,S stereoisomer remaining ([3]; 180 days)	percentage of active S,S stereoisomer remaining ([3]; T = 0)	stability test percentage value (active ingredient %), 30 days [4]	stability test percentage value (active ingredient %), 60 days [4]	stability test percentage value (active ingredient %), 90 days [4]	stability test percentage value (active ingredient %), 120 days [4]	stability test percentage value (active ingredient %), 180 days [4]	percentage of the active S,S stereoisomer remaining ([5]; 30 days)	percentage of the active S,S stereoisomer remaining ([5]; 90 days)	percentage of the active S,S stereoisomer remaining ([5]; 180 days)	other results
C[S+](CCC(N)C(=O)[O-])C[C@H]1O[C@@H](n2cnc3c(N)ncnc32)[C@H](O)[C@@H]1O.C[S+](CCC(N)C(=O)[O-])C[C@H]1O[C@@H](n2cnc3c(N)ncnc32)[C@H](O)[C@@H]1O.O=S(=O)(O)O.O=S(=O)([O-])[O-].[Mg+2] (stereo partly shown) [SAMe•0.5H2SO4•0.5Mg2SO4•0.4H2O]	0.23%	0.45%	0.65%	0.87%	0.99%	0.57%	90.8%	88.8%	85.6%	82.6%	78.6%	98.2%	0.57%	0.65%	0.96%	1.40%	2.18%	97.8%	96.8%	95.6%	percentage of the active S,S stereoisomer remaining ([5]; 360 days): 92.6%; percentage of the active S,S stereoisomer remaining ([5]; 720 days): 88.6%; percentage of the active S,S stereoisomer remaining ([5]; T = 0): 98.2%
C[S+](CCC(N)C(=O)[O-])C[C@H]1O[C@@H](n2cnc3c(N)ncnc32)[C@H](O)[C@@H]1O.C[S+](CCC(N)C(=O)[O-])C[C@H]1O[C@@H](n2cnc3c(N)ncnc32)[C@H](O)[C@@H]1O.Cl.O=S(=O)([O-])[O-].[Mg+2] (stereo partly shown) [SAMe•0.5HCl•0.5MgSO4]	0.31%	0.46%	0.77%	0.94%	1.19%	0.82%	92.8%	87.8%	84.6%	89.6%	72.6%	98.9%	0.48%	0.78%	1.54%	1.98%	2.78%	97.8%	95.8%	94.3%	percentage of the active S,S stereoisomer remaining ([5]; 360 days): 91.6%; percentage of the active S,S stereoisomer remaining ([5]; 720 days): 88.2%; percentage of the active S,S stereoisomer remaining ([5]; T = 0): 98.9%
